Reference: ChEMBL document CHEMBL4346717, “1,2,4-Triazole-quinoline/quinolone hybrids as potential anti-bacterial agents” (Eur J Med Chem, 2019)
Values after ≈ are worked out from the molar mass of the structure shown.

Columns and labels:
Format in all cases: functional
Bacillus subtilis [1] = experiment: Antibacterial activity against Bacillus subtilis assessed as zone of inhibition at 10 mg/ml after 3 to 7 days by cup diffusion method; settings: read-out: IZ
Escherichia coli [2] = experiment: Antibacterial activity against Escherichia coli after 3 to 7 days by cup diffusion method
Pseudomonas aeruginosa [3] = experiment: Antibacterial activity against Pseudomonas aeruginosa after 3 to 7 days by cup diffusion method
[4] = tested on: Aggregatibacter actinomycetemcomitans; experiment: Antibacterial activity against Aggregatibacter actinomycetemcomitans ATCC 29524 after 3 to 7 days by cup diffusion method
Escherichia coli [5] = experiment: Antibacterial activity against Escherichia coli assessed as zone of inhibition at 10 mg/ml after 3 to 7 days by cup diffusion method; settings: read-out: IZ
Staphylococcus aureus [6] = experiment: Antibacterial activity against Staphylococcus aureus after 3 to 7 days by cup diffusion method
Staphylococcus aureus [7] = experiment: Antibacterial activity against Staphylococcus aureus assessed as zone of inhibition at 10 mg/ml after 3 to 7 days by cup diffusion method; settings: read-out: IZ
[8] = tested on: Aggregatibacter actinomycetemcomitans; experiment: Antibacterial activity against Aggregatibacter actinomycetemcomitans ATCC 29524 assessed as zone of inhibition at 10 mg/ml after 3 to 7 days by cup diffusion method; settings: read-out: IZ
Bacillus subtilis [9] = experiment: Antibacterial activity against Bacillus subtilis after 3 to 7 days by cup diffusion method
Mycolicibacterium phlei [10] = experiment: Antibacterial activity against Mycobacterium phlei clinical isolate after 3 to 7 days by cup diffusion method
Mycolicibacterium phlei [11] = experiment: Antibacterial activity against Mycobacterium phlei clinical isolate assessed as zone of inhibition at 10 mg/ml after 3 to 7 days by cup diffusion method; settings: read-out: IZ
Pseudomonas aeruginosa [12] = experiment: Antibacterial activity against Pseudomonas aeruginosa assessed as zone of inhibition at 10 mg/ml after 3 to 7 days by cup diffusion method; settings: read-out: IZ
[13] = Escherichia coli, read-out: MIC
[14] = Pseudomonas aeruginosa, read-out: MIC
[15] = Aggregatibacter actinomycetemcomitans, ATCC 29524, read-out: MIC
[16] = Staphylococcus aureus, read-out: MIC
[17] = Bacillus subtilis, read-out: MIC
[18] = Mycolicibacterium phlei, read-out: MIC

| MIC (Escherichia coli [2]) | MIC (Pseudomonas aeruginosa [3]) | MIC [4] | MIC (Staphylococcus aureus [6]) | MIC (Bacillus subtilis [9]) | MIC (Mycolicibacterium phlei [10]) | MIC (Escherichia coli [2]; [13]) [µM] | MIC (Pseudomonas aeruginosa [3]; [14]) [µM] | MIC [4, 15] [µM] | MIC (Staphylococcus aureus [6]; [16]) [µM] | MIC (Bacillus subtilis [9]; [17]) [µM] | MIC (Mycolicibacterium phlei [10]; [18]) [µM] | Compound | zone of inhibition at 10000 µg/mL (Bacillus subtilis [1]) [mm] | zone of inhibition at 10000 µg/mL (Escherichia coli [5]) [mm] | zone of inhibition at 10000 µg/mL (Staphylococcus aureus [7]) [mm] | zone of inhibition at 10000 µg/mL [8] [mm] | zone of inhibition at 10000 µg/mL (Mycolicibacterium phlei [11]) [mm] | zone of inhibition at 10000 µg/mL (Pseudomonas aeruginosa [12]) [mm] |
| --- | --- | --- | --- | --- | --- | --- | --- | --- | --- | --- | --- | --- | --- | --- | --- | --- | --- | --- |
| – | – | – | – | – | – | 3.68 to 6.3 (≈ 1.79 to 3.07 µg/mL) | 3.68 to 6.3 (≈ 1.79 to 3.07 µg/mL) | 3.68 to 6.3 (≈ 1.79 to 3.07 µg/mL) | 3.68 to 6.3 (≈ 1.79 to 3.07 µg/mL) | 3.68 to 6.3 (≈ 1.79 to 3.07 µg/mL) | 3.68 to 6.3 (≈ 1.79 to 3.07 µg/mL) | CCn1cc(-c2nc(NC(=O)c3ccc(Cl)cc3)n[nH]2)c(=O)c2cc(Br)c(C)nc21 | 20 to 40 | 20 to 40 | 20 to 40 | 20 to 40 | 20 to 40 | 20 to 40 |
| – | – | – | – | – | – | 3.68 to 6.3 (≈ 1.78 to 3.04 µg/mL) | 3.68 to 6.3 (≈ 1.78 to 3.04 µg/mL) | 3.68 to 6.3 (≈ 1.78 to 3.04 µg/mL) | 3.68 to 6.3 (≈ 1.78 to 3.04 µg/mL) | 3.68 to 6.3 (≈ 1.78 to 3.04 µg/mL) | 3.68 to 6.3 (≈ 1.78 to 3.04 µg/mL) | CCn1cc(-c2nc(NC(=O)c3ccc(OC)cc3)n[nH]2)c(=O)c2cc(Br)c(C)nc21 | 20 to 40 | 20 to 40 | 20 to 40 | 20 to 40 | 20 to 40 | 20 to 40 |
| – | – | – | – | – | – | 3.68 to 6.3 (≈ 1.73 to 2.97 µg/mL) | 3.68 to 6.3 (≈ 1.73 to 2.97 µg/mL) | 3.68 to 6.3 (≈ 1.73 to 2.97 µg/mL) | 3.68 to 6.3 (≈ 1.73 to 2.97 µg/mL) | 3.68 to 6.3 (≈ 1.73 to 2.97 µg/mL) | 3.68 to 6.3 (≈ 1.73 to 2.97 µg/mL) | CCn1cc(-c2nc(NC(=O)c3ccc(F)cc3)n[nH]2)c(=O)c2cc(Br)c(C)nc21 | 20 to 40 | 20 to 40 | 20 to 40 | 20 to 40 | 20 to 40 | 20 to 40 |

The remaining lines, values behind:

| Compound | MIC (Escherichia coli [2]) | MIC (Pseudomonas aeruginosa [3]) | MIC [4] | MIC (Staphylococcus aureus [6]) | MIC (Bacillus subtilis [9]) | MIC (Mycolicibacterium phlei [10]) | MIC (Escherichia coli [2]; [13]) [µM] | MIC (Pseudomonas aeruginosa [3]; [14]) [µM] | MIC [4, 15] [µM] | MIC (Staphylococcus aureus [6]; [16]) [µM] | MIC (Bacillus subtilis [9]; [17]) [µM] | MIC (Mycolicibacterium phlei [10]; [18]) [µM] | zone of inhibition at 10000 µg/mL (Bacillus subtilis [1]) [mm] | zone of inhibition at 10000 µg/mL (Escherichia coli [5]) [mm] | zone of inhibition at 10000 µg/mL (Staphylococcus aureus [7]) [mm] | zone of inhibition at 10000 µg/mL [8] [mm] | zone of inhibition at 10000 µg/mL (Mycolicibacterium phlei [11]) [mm] | zone of inhibition at 10000 µg/mL (Pseudomonas aeruginosa [12]) [mm] |
| --- | --- | --- | --- | --- | --- | --- | --- | --- | --- | --- | --- | --- | --- | --- | --- | --- | --- | --- |
| CCn1cc(-c2nc(/N=C/c3ccc(OC)cc3)n[nH]2)c(=O)c2ccc(C)nc21 | >=0.031 - 32 ug ml-1 | >=0.031 - 32 ug ml-1 | >=0.031 - 32 ug ml-1 | >=0.031 - 32 ug ml-1 | >=0.031 - 32 ug ml-1 | >=0.031 - 32 ug ml-1 | – | – | – | – | – | – | 20 to 40 | 20 to 40 | 20 to 40 | 20 to 40 | 20 to 40 | 20 to 40 |
| CCn1cc(-c2nc(NC(=O)CCl)n[nH]2)c(=O)c2cc(Br)c(C)nc21 | – | – | – | – | – | – | 3.68 to 6.3 (≈ 1.57 to 2.68 µg/mL) | 3.68 to 6.3 (≈ 1.57 to 2.68 µg/mL) | 3.68 to 6.3 (≈ 1.57 to 2.68 µg/mL) | 3.68 to 6.3 (≈ 1.57 to 2.68 µg/mL) | 3.68 to 6.3 (≈ 1.57 to 2.68 µg/mL) | 3.68 to 6.3 (≈ 1.57 to 2.68 µg/mL) | 20 to 40 | 20 to 40 | 20 to 40 | 20 to 40 | 20 to 40 | 20 to 40 |
| CCn1cc(-c2nc(/N=C/c3ccc(Cl)cc3)n[nH]2)c(=O)c2cc(Br)c(C)nc21 | – | – | – | – | – | – | 3.68 to 6.3 (≈ 1.74 to 2.97 µg/mL) | 3.68 to 6.3 (≈ 1.74 to 2.97 µg/mL) | 3.68 to 6.3 (≈ 1.74 to 2.97 µg/mL) | 3.68 to 6.3 (≈ 1.74 to 2.97 µg/mL) | 3.68 to 6.3 (≈ 1.74 to 2.97 µg/mL) | 3.68 to 6.3 (≈ 1.74 to 2.97 µg/mL) | 20 to 40 | 20 to 40 | 20 to 40 | 20 to 40 | 20 to 40 | 20 to 40 |
| CCn1cc(-c2nc(/N=C/c3ccc(F)cc3)n[nH]2)c(=O)c2cc(Br)c(C)nc21 | – | – | – | – | – | – | 3.68 to 6.3 (≈ 1.68 to 2.87 µg/mL) | 3.68 to 6.3 (≈ 1.68 to 2.87 µg/mL) | 3.68 to 6.3 (≈ 1.68 to 2.87 µg/mL) | 3.68 to 6.3 (≈ 1.68 to 2.87 µg/mL) | 3.68 to 6.3 (≈ 1.68 to 2.87 µg/mL) | 3.68 to 6.3 (≈ 1.68 to 2.87 µg/mL) | 20 to 40 | 20 to 40 | 20 to 40 | 20 to 40 | 20 to 40 | 20 to 40 |
| CCn1cc(-c2nc(/N=C/c3ccccc3)n[nH]2)c(=O)c2cc(Br)c(C)nc21 | – | – | – | – | – | – | 3.68 to 6.3 (≈ 1.61 to 2.75 µg/mL) | 3.68 to 6.3 (≈ 1.61 to 2.75 µg/mL) | 3.68 to 6.3 (≈ 1.61 to 2.75 µg/mL) | 3.68 to 6.3 (≈ 1.61 to 2.75 µg/mL) | 3.68 to 6.3 (≈ 1.61 to 2.75 µg/mL) | 3.68 to 6.3 (≈ 1.61 to 2.75 µg/mL) | 20 to 40 | 20 to 40 | 20 to 40 | 20 to 40 | 20 to 40 | 20 to 40 |
